For data set [1] the following is noted: in vivo; cited from earlier work.
Data set [2] relates to cerebrocortical neurons from rats at embryonic age 17. As to the kind of experiment: Peroxidation of neuronal membrane lipids by ferrous sulfate and ascorbic acid (TBA). The class given is cell-based, rat. The following applies: 48 hours pretreatment. The method, then:
Then the medium was changed to a fresh medium containing ferrous sulfate and ascorbic acid but not containing ginsenoside Rb1 and the neuronal culture was maintained for 2 hours to generate hydroxyl radicals for giving an oxidative injury to neuronal membrane. The generated neuronal membrane lipid peroxide was determined by photometrically measuring a fixed amount of thiobarbituric acid (TBA) after solubilizing the cells with sodium dodecyl sulfate.
Then the medium was changed to a fresh medium containing ferrous sulfate and ascorbic acid but no ginsenoside Rb1, and the neuronal culture was maintained for 2 hours to generate hydroxyl radicals for giving oxidative injury to neuronal membrane. The generated neuronal membrane lipid peroxide was photometrically determined by measuring the fixed amount of thiobarbituric acid (TBA) after solubilizing the cells with sodium dodecyl sulfate.

In data set [3] the test system is nerve cells. The following applies: cited from earlier work.
The test system of data set [4] is SH-SP rats with MCA permanent occlusion. As to the kind of experiment: Ratio of cerebrocortical infarction after MCA permanent occlusion, intravenous infusion. The format is in vivo, rat. The method, then: First, we examined the actions of intravenous infusion of ginsenoside Rb1. For this purpose, for example, male SH-SP rats weighing 250˜300 g at the age of 12-13 weeks were used. The animals were bred in an air-conditioned room with a 12:12 hour light-dark cycle, and water and feeds were supplied ad libitum. The cortical branch of the left middle cerebral artery (MCA) was coagulated and cut. A single intravenous administration of ginsenoside Rb1 dissolved in physiological saline was conducted immediately after MCA permanent occlusion (6 μg or 60 μg), thereafter continuous intravenous administration of ginsenoside Rb1 was performed for 28 days by using an Alza mini osmotic pump (6 μg/day or 60 μg/day).
After the water maze tests at the 4th week, the SH-SP rats were anesthetized with chloral hydrate, and they were perfused and fixed transcardially with 0.1 mole phosphate buffer containing 4% paraformaldehyde. The brains were dissected out and cerebrocortical infarcted areas were photographed. Areas of the left cerebral hemisphere and the left cerebrocortical infarct lesions were measured on the photographs by using an image analysis device. The left cerebrocortical infarcted areas were divided by the left cerebral hemispheric areas to calculate ratios of the cerebrocortical infarction (%).
Male SH-SP rats at the age of 12-13 weeks, weighing 250-300 g, were used. The animals were bred in a room furnished with 12 hours light and dark cycles and water and feeds were supplied ad libitum. Blood pressure of the animals was 203±6.9 mmHg. The following experiments were conducted in accordance with the Guide for Animal Experimentation at Ehime University School of Medicine. […]
After termination of the water maze tests at the 4th week, the SH-SP rats were anesthetized with chloral hydrate, and they were perfused and fixed transcardially with 0.1 mole phosphate buffer containing 4% paraformaldehyde. […] Areas of the left cerebral hemisphere and the left cerebrocortical infarct lesions were measured on the photographs by using an image analysis device. […]

The test system of data set [5] is brain. The note with it: intraperitoneal administration; cited from earlier work.
Data set [6] relates to Bcl-xL mRNA. The experiment in a line: Bcl-xL mRNA expression in cultured nerve cells (RT-PCR). The format is cell-based, rat. The note with it: 1 fg/ml or 100 fg/ml, 24 hours; compared with control (0 fg/ml). The method, then:
It was investigated whether ginsenoside Rb1 of the present invention can increase the expression of Bcl-xL gene or not. Experimental techniques followed those by Wen et al. (Wen T. -C., et al., J. Exp. Med., 188, 635-649, 1998). Total RNA was extracted from cultured nerve cells treated for 24 hours with ginsenoside Rb1 at the concentrations of 0 fg/ml, 1 fg/ml and 100 fg/ml. cDNA was prepared from DNase-treated total RNA (3 μg) by using oligo dT primer and reverse transcriptase (Moloney murine leukemia virus reverse transcriptase). Gene amplification reaction (polymerase chain reaction, PCR) was performed by using Taq polymerase under the following conditions: (1) 94° C., 2 minutes; (2) 94° C., 1.5 minute; 55° C., 1.5 minute; 72° C., 2 minutes constructed one cycle, and 25 cycles for Bcl-xL and 20 cycles for β-actin were performed; and (3) 72° C., 2 minutes.
PCR products were electrophoresed on 3% agarose gel and visualized by ethidium bromide staining. The expression of β-actin mRNA was used as an internal standard. […]

For data set [7] the following is noted: intracerebroventricular administration; cited from earlier work.
Data set [8] has as its system neuronal cells. The following applies: 0.11-11 μg/ml; cited from earlier work.
Data set [9] relates to cultured nerve cells. The following applies: cited from earlier work.
Data set [10] relates to nerve cells. The following applies: approximately 500 μM (550 μg/ml); cited from earlier work.

Consider `CC(C)=CCC[C@](C)(O[C@@H]1O[C@H](CO[C@@H]2O[C@H](CO)[C@@H](O)[C@H](O)[C@H]2O)[C@@H](O)[C@H](O)[C@H]1O)[C@H]1CC[C@]2(C)[C@@H]1[C@H](O)C[C@@H]1[C@@]3(C)CC[C@H](O[C@@H]4O[C@H](CO)[C@@H](O)[C@H](O)[C@H]4O[C@@H]4O[C@H](CO)[C@@H](O)[C@H](O)[C@H]4O)C(C)(C)[C@@H]3CC[C@]12C` [ginsenoside Rb1], for which the “detection in blood after oral administration” value in data set [1] was “can not be detected”. Moreover, the “preventive effect on lipid peroxidation” value in [2] (0.1-10 fg/ml) was “no preventive effects”. For the same molecule, the “preventive effect on peroxidation of nerve cell membrane lipid” value in data set [2] (100 fg/ml) was “slightly confirmed”. Besides, the “neurotoxicity at high concentrations” value in data set [3] is given as “increased neurotoxicity”. For the same molecule, the “ratio of cerebrocortical infarction” value in data set [4] (i.v. 6 or 60 μg/day for 28 days, compared with physiological saline group) was “significantly reduced”. Moreover, the “actual volume of infarction reduced to (fraction of control)” value in data set [4] (i.v. administration, worked out from area ratio) is “about ¼”. Moreover, the “mean ratio of cerebrocortical infarction compared with physiological saline group” value in [4] (i.v. ginsenoside Rb1 groups, reduced to) is reported as no more than 50%. The “action on the brain” value in [5] is “tranquilizing action”. For the same molecule, the “expression of Bcl-xL mRNA” value in [6] is “increased”. Moreover, the “brain temperature, cerebral blood flow and blood pressure” value in data set [7] was “no effects”. Also, in data set [8], the glutamate-mediated neurotoxicity entry is “reduce glutamate-mediated neurotoxicity”. Also, the “neurotoxicity of free radicals” value in data set [9] (0.1-100 fg/ml) is “reduce the neurotoxicity”. In addition, the “neuronal necrosis caused by ferrous sulfate” value in data set [9] (1-100 fg/ml previously admixed in culture medium) is recorded as “reduces neuronal necrosis”. In data set [10], the “apoptosis-like nerve cell death” value was “has a possibility to prevent”.

These data come from US6579853B2, “Brain cell or nerve cell-protective agents comprising ginsenoside Rb1” (Japan Science and Technology Corporation, priority 1998, dated 2003).
